Active and inactive are the calls of the source. The calls are words filed in the database; no cut-off is given here.
How the values were obtained:
Rattus norvegicus [1] = species on record: Rattus norvegicus; test: Inhibition of rat intestinal alpha-glucosidase using 7-O-alpha-D-glucopyranosyl 4-methylumbelliferone preincubated for 15 mins at 50 to 200 uM prior substrate addition measured over 30 mins by fluorescence assay
3T3-L1 = test: Increase in [3H]-2-DOG uptake in mouse 3T3L1 cells at 0.001 to 100 uM after 3 hrs by liquid scintillation counting relative to vehicle-treated control
Rattus norvegicus [2] = species on record: Rattus norvegicus; test: Inhibition of rat intestinal alpha-glucosidase using 7-O-alpha-D-glucopyranosyl 4-methylumbelliferone preincubated for 15 mins at 100 to 400 uM prior substrate addition measured over 30 mins by fluorescence assay
Rattus norvegicus [3] = species on record: Rattus norvegicus; test: Inhibition of rat intestinal alpha-glucosidase using 7-O-alpha-D-glucopyranosyl 4-methylumbelliferone preincubated for 15 mins at 200 uM prior substrate addition measured over 30 mins by fluorescence assay
HepG2/C3A = test: Increase in [3H]-2-DOG uptake in human HepG2/C3A cells at 0.001 to 100 uM after 3 hr by liquid scintillation counting relative to vehicle-treated control
L6 = test: Increase in [3H]-2-DOG uptake in rat L6 cells at 10 uM after 1 hr by liquid scintillation counting relative to vehicle-treated control; format: functional

Row | inhibition (Rattus norvegicus [1]) | inhibition (Rattus norvegicus [2]) | inhibition (Rattus norvegicus [3]) [%] | Compound | Activity (3T3-L1) | Activity (HepG2/C3A) | Activity (L6) [%]
1 | inactive | – | – | O=C(c1ccc(O)c(O)c1)c1c(O)cc(O)cc1O | – | – | –
2 | – | Active | 43 | O=C(c1ccc(O)cc1)c1c(O)cc(O[C@@H]2O[C@H](CO)[C@@H](O)[C@H](O)[C@H]2O)c([C@@H]2O[C@H](CO)[C@@H](O)[C@H](O)[C@H]2O)c1O | Active | Active | 22
3 | – | Active | – | O=C(c1ccc(O)cc1)c1c(O)cc(O)c([C@@H]2O[C@H](CO)[C@@H](O)[C@H](O)[C@H]2O)c1O | Active | Active | –
4 | – | – | 54 | O=C(c1ccc(O)c(O)c1)c1c(O)cc(O)c([C@@H]2O[C@H](CO)[C@@H](O)[C@H](O)[C@H]2O)c1O | – | – | –

Source: ChEMBL document CHEMBL3351554, “Benzophenone C- and O-glucosides from Cyclopia genistoides (Honeybush) inhibit mammalian α-glucosidase” (2014)
